Assay in all cases: NCI-60 cell line screen, 48 h
For assay [1], the system named is SK-MEL-2 melanoma.
The subject of assay [2] is RPMI-8226 leukemia.
Assay [3] relates to NCI-H460 lung.
Assay [4] relates to HT29 colon.
The subject of assay [5] is MOLT-4 leukemia.
Assay [6] has as its system NCI-H23 lung.
Assay [7] has as its system A549 NSCLC.
The test system of assay [8] is UACC-257 melanoma.
In assay [9] the test system is NCI/ADR-RES ovarian.
Assay [10] deals with SR leukemia.

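96-well plates; 48 h exposure; 5 concentrations. Endpoints by linear interpolation between flanking doses. Not reached: highest tested concentration assigned. GI50 = concentration required for 50% inhibition of growth. TGI denotes the concentration required for complete inhibition of growth.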 Where a SMILES comes first, the peptide text is derived from it. [ ]: non-standard residue; d: D form. Phe(4-Cl) = N[CH](Cc1ccc(Cl)cc1)C(=O)O

As to `O=C(O)CN(c1ccccc1)S(=O)(=O)c1ccccc1[N+](=O)[O-]`, the TGI in [1], in [2], in [3], in [4], in assay [5] and in [6] was greater than 100 µM throughout. Besides, the TGI in assay [7] and in assay [8] was greater than 100 µM each time.
On to `NC(N)=NCCCn1c2c(c3ccccc3c1=O)C(=O)c1ccccc1-2`, for which the GI50 in [9] is 38.6 µM; in assay [1], 19.5 µM; in assay [2], 42.7 µM; in [3], 15.3 µM; in assay [4] it was 32.6 µM; in assay [5], 2.65 µM. The GI50 in [7] is 27.1 µM. The TGI in assay [9] is greater than 100 µM; in assay [1], 33.6 µM; in [2], greater than 100 µM; in [3], greater than 100 µM; in assay [4] it was greater than 100 µM; in assay [5], 18.8 µM. In [7], this molecule displayed a TGI greater than 100 µM.
As to `CC[O-].CC[O-].O=C1c2ccccc2C(=O)c2c(O)ccc([O-])c21.O=C1c2ccccc2C(=O)c2c(O)ccc([O-])c21.[Ti+4]`, the TGI in assay [1], in [2], in assay [3], in assay [4], in [5] and in assay [6] was greater than 100 µM throughout. Also, the TGI in [7] and in [8] was greater than 100 µM in each case.
As for `CC(O)C(NC(=O)C(Cc1ccccc1)NC(=O)C(NC(=O)C(CCCCN)NC(=O)C(Cc1c[nH]c2ccccc12)NC(=O)C(Cc1ccc(O)cc1)NC(=O)C(Cc1ccc(Cl)cc1)NC(=O)C(N)Cc1ccccc1)C(C)O)C(N)=O` (stereo not drawn) (H-F[Phe(4-Cl)]YWKTFT-NH2; configuration not given here), the TGI in assay [1] is 39.3 µM; in [2] it was 33.5 µM; in assay [3], 32.5 µM; in [4], 62.8 µM; in [5], 62.2 µM; in assay [6], 41.2 µM. Also, in [7], the TGI was 36 µM.
Regarding `COc1ccc(C(=O)c2cc(C)c(OC)c(C)c2)c(OC)c1N(C(=O)C(Cl)Cl)C(=O)C(Cl)Cl`, the GI50 in assay [9] was 0.032 µM; in assay [1], 0.0669 µM; in assay [2], 0.0794 µM; in [3], 0.0381 µM; in assay [4] it was 0.323 µM; in [5] it was 0.122 µM. In addition, the results for the GI50 in assay [6], in assay [7] and in assay [8] were 0.0909 µM, 0.0804 µM and greater than 69.4 µM, respectively. The TGI in [1] is greater than 100 µM; in assay [2], 20.8 µM; in assay [3], 15.7 µM; in assay [4] it was greater than 40.6 µM; in assay [5] it was greater than 100 µM; in assay [6], greater than 100 µM. Moreover, the TGI in assay [7] and in [8] was greater than 100 µM in each case.
`Clc1nc(Cl)c2ncn(Cc3cccc(COc4cccc(OCc5cccc(Cn6cnc7c(Cl)nc(Cl)nc76)c5)c4)c3)c2n1`: the GI50 in assay [9] was 53.1 µM; in assay [1], 17.1 µM; in assay [2], 2.61 µM; in [3], greater than 100 µM; in assay [4], greater than 100 µM; in assay [5] it was 4.73 µM. Also, the results for the GI50 in [6], in assay [7] and in assay [8] were 54.5 µM, greater than 100 µM and 13.5 µM, respectively. Further, the TGI was greater than 100 µM in assay [9]; greater than 100 µM in assay [1]; 54.8 µM in assay [2]; greater than 100 µM in assay [3]; greater than 100 µM in assay [4]; greater than 100 µM in [5]. Besides, the TGI in [6], in assay [7] and in assay [8] was greater than 100 µM throughout.
Turning to `C=CCCCCCCCCC(=O)NS(=O)(=O)c1ccccc1`, the TGI in assay [1], in assay [2], in assay [3], in assay [4], in [5] and in [6] was greater than 100 µM in each case. The TGI in assay [7] and in assay [8] was greater than 100 µM in each case.
In the case of `CC(C)(C)OC(=O)Cc1ccc2c(ccn2Cc2ccccc2)c1`, the TGI was greater than 100 µM in [1]; greater than 100 µM in assay [3]; 36.4 µM in assay [4]; greater than 100 µM in assay [5]; greater than 100 µM in [6]; greater than 100 µM in [7]. Moreover, the TGI in assay [8] is greater than 100 µM.
For the molecule `N#Cc1nc(C2OC(COC(=O)c3ccccc3)C(OC(=O)c3ccccc3)C2OC(=O)c2ccccc2)oc1N` (stereo not drawn), the TGI in assay [1] was 93.7 µM; in assay [2], 5.63 µM; in [3] it was greater than 100 µM; in assay [4], greater than 100 µM; in assay [5], greater than 100 µM; in assay [6], greater than 100 µM. Also, the TGI in assay [7] and in assay [8] was greater than 100 µM each time.
For the molecule `Cc1noc(C)c1CCCOC1COc2ccccc2OCCOCCOc2ccccc2OC1`, the TGI in [1], in [4], in [6], in [7] and in assay [8] was greater than 100 µM throughout.
On to `O=C(CCl)Nc1ccc(Cl)cc1`, for which the GI50 is 2.8 µM in [9]; 2.51 µM in [1]; 3.14 µM in assay [2]; 3.86 µM in [3]; 2.03 µM in assay [4]; 3.29 µM in [6]. Further, the GI50 in assay [7] is 11.2 µM; in assay [8], 10.4 µM. The TGI in assay [9] was 8.96 µM; in assay [1], 6.16 µM; in assay [2] it was 9.45 µM; in [3], 16.5 µM; in assay [4], 4.26 µM; in assay [6], 14.3 µM. The TGI worked out at 26.9 µM in [7] and 27.1 µM in [8].
On to `CCOC1=NC(=O)CC(c2ccccc2)S1` (stereo not drawn), for which the TGI in assay [1], in [2], in [3], in assay [4], in assay [5] and in [7] was greater than 100 µM each time. In addition, in assay [8], the TGI was greater than 100 µM.
With `Cc1cccc(NC(=O)C(=O)Cc2nc3ccccc3[nH]c2=O)c1C`, the TGI in assay [3], in assay [4], in assay [10], in assay [6], in assay [7] and in assay [8] was greater than 100 µM throughout.
`COc1cc(NC(=O)c2cc(O)c(CC=C(C)C)c(O)c2)cc2c1O[C@]1(C)CC[C@@H](O)C(C)(C)[C@H]1C2`: the GI50 in [9] is 37 µM; in assay [1], 1.33 µM; in assay [2], 0.428 µM; in [3], 3.65 µM; in [4], 3.47 µM; in assay [5], 2.07 µM. For the same molecule, the GI50 in [6] was 3.99 µM; in assay [7] it was 6.87 µM; in assay [8], 3.37 µM. Further, the TGI is greater than 100 µM in [9]; 15.1 µM in [1]; 2.73 µM in [2]; 19.2 µM in assay [3]; 11.9 µM in [4]; 7.87 µM in assay [5]. For the same molecule, the TGI stood at 25.7 µM in assay [6], 23.2 µM in assay [7] and 15.7 µM in [8].
On to `CN(C)c1ccc(N)cc1`, for which the GI50 in assay [9] was 12.6 µM; in assay [1], 2.55 µM; in assay [2] it was 2.71 µM; in assay [3], 3.09 µM; in assay [4], 3.04 µM; in [6], 3.14 µM. In addition, the figures for the GI50 in assay [7] and in assay [8] were 4.58 µM and 2.69 µM, respectively. In addition, the TGI in [9] is 48 µM; in [1], 7.84 µM; in assay [2], 9.1 µM; in assay [3] it was 13 µM; in [4], 10.8 µM; in assay [6] it was 14.1 µM. The TGI amounted to 52.6 µM in [7] and 7.28 µM in assay [8].
Regarding `COc1ccc(C(=O)COc2cccc(/C=C3\COc4ccc5ccccc5c4C3=O)c2)cc1`, the GI50 in assay [9] is 6.14 µM; in assay [1] it was 5.83 µM; in [2] it was 1.15 µM; in assay [3], 6.44 µM; in assay [4] it was 6.08 µM; in assay [5], 2.86 µM. Moreover, the figures for the GI50 in assay [6], in assay [7] and in assay [8] were 5.17 µM, greater than 100 µM and 39.7 µM, respectively. Also, the TGI in assay [9] is greater than 100 µM; in [1], greater than 100 µM; in [2], 3.94 µM; in [3] it was greater than 100 µM; in [4], greater than 100 µM; in assay [5], 18.9 µM. The TGI in [6], in assay [7] and in assay [8] was greater than 100 µM throughout.
Consider `CC(C)=CCC/C(=C/CC/C(C)=C/CCc1ccoc1)C(=O)O`, for which the TGI in assay [1], in assay [3], in assay [4], in assay [5], in assay [6] and in assay [7] was greater than 100 µM each time. Besides, the TGI in [8] was greater than 100 µM.
In the case of `Cc1ccc(Nc2nc3c(s2)C(=O)c2ccccc2C3=O)c(C)c1`, the TGI in [1] stood at 28.2 µM; in assay [2], 45.6 µM; in assay [3], 54.2 µM; in [4] it was 48.3 µM; in [5], 23.4 µM; in assay [6] it was 25.6 µM. In addition, the TGI came to 37.6 µM in [7] and 22.8 µM in [8].
For the molecule `Fc1cc(F)c(COc2cc(Cn3cnc4c(Cl)nc(Cl)nc43)ccc2C23CC4CC(CC(C4)C2)C3)cc1F`, the GI50 in assay [9] was 18.3 µM; in [1], 21 µM; in [3] it was 19.4 µM; in assay [4], 23.6 µM; in assay [7], 28 µM; in assay [8], 21 µM. Further, the TGI in [9] is 37.1 µM; in [1] it was 56.1 µM; in assay [3] it was 37.5 µM; in assay [4] it was 62.5 µM; in assay [7], 76.7 µM; in assay [8], 39.3 µM.
On to `CN(C)CCCn1c2c(c3ccccc3c1=O)C(=O)c1ccccc1-2`, for which the GI50 in [9] was 1.85 µM; in assay [1] it was 13.1 µM; in [2] it was 1.4 µM; in assay [3], 0.52 µM; in assay [4] it was 0.749 µM; in assay [5] it was 0.276 µM. The GI50 was 1.75 µM in assay [6] and 0.65 µM in assay [7]. For the same molecule, the TGI in assay [9] was 7.13 µM; in [1] it was greater than 100 µM; in [2], 5.79 µM; in [3] it was 10.5 µM; in [4], 4.51 µM; in assay [5], 0.746 µM. Moreover, the TGI in [6] was found to be 8.39 µM; in assay [7], 3.14 µM.
On to `NCCCC[C@@H]1NC(=O)[C@H]2CCCN2C(=O)[C@H](Cc2ccccc2)NC(=O)[C@H](Cc2ccccc2)CNC1=O`, for which the GI50 in assay [9], in assay [1], in assay [2], in assay [3], in assay [4] and in [5] was greater than 100 µM in each case. The GI50 in assay [6], in [7] and in [8] was greater than 100 µM in each case. Also, the TGI in assay [9], in assay [1], in [2], in assay [3], in assay [4] and in assay [5] was greater than 100 µM in each case. The TGI in assay [6], in assay [7] and in [8] was greater than 100 µM in each case.
Regarding `COC(=O)c1cc(Br)c(Br)n1C`, the TGI in assay [4], in assay [10], in assay [5], in [6], in assay [7] and in assay [8] was greater than 100 µM each time.
As for `O=C1NC(=O)c2ccc([N+](=O)[O-])c3cccc1c23`, the TGI came out at 84.1 µM in assay [1]; 37.7 µM in [2]; 29.7 µM in [3]; 39.3 µM in [4]; 33.7 µM in assay [6]; 43.9 µM in [7]. Moreover, the TGI in assay [8] is 33.1 µM.
For the molecule `Cc1cc(C)nc(NS(=O)(=O)c2ccc(Nc3c4ccccc4nc4c(C(=O)Nc5ccc(S(=O)(=O)Nc6cc(C)on6)cc5)cccc34)cc2)n1`, the TGI was found to be 56.3 µM in assay [2]; 61 µM in [3]; 35.5 µM in assay [4]; 81.6 µM in assay [10]; 64 µM in [5]; 51.1 µM in assay [6]. The TGI is greater than 100 µM in assay [7] and 66.6 µM in assay [8].

For the origin of these results see PubChem BioAssay (NCI).
